Literature values in US20260285945A1, “OMOMYC AND KRAS INHIBITORS COMBINATION THERAPY FOR THE TREATMENT OF CANCER” (PEPTOMYC, S.L., priority 2023, published 2026).

Tested on: cancer cell proliferation
Conditions: single agent; background of the invention

CNCc1ccccc1-c1csc([C@@H](C)Nc2nc(C)nc3cc(OC)c(OC)cc23)c1 [BAY-293]
Inhibition of cancer cell proliferation, potency: weak potency
